Measured values from patent US20150259747A1, “METHOD OF PREDICTING A PREDISPOSITION TO QT PROLONGATION” (priority 2007, published 2015).

Test system: individuals genotyped at the rs993648 locus
Assay: QT interval change after two weeks of oral iloperidone in 174 individuals genotyped at the CERKL rs993648 locus
Format: in vivo, human
Conditions: iloperidone 24 mg/day B.I.D. oral; for High QT, - test (number of individuals) / Low QT, - test (number of individuals): rs993648 genotype AB (- test); for High QT, - test (number of individuals) / High QT, + test (number of individuals) / Low QT, - test (number of individuals) / Low QT, + test (number of individuals): n=174; for High QT, + test (number of individuals) / Low QT, + test (number of individuals): rs993648 genotype non-AB (+ test)
Protocol: Since the QT interval changes with changes in heart rate, the QT interval is often measured as a corrected QT (QTc) interval. Any number of formulas may be employed to calculate the QTc, including, for example, the Fridericia formula (QTcF), the Bazett formula (QTcB), and the Rautaharju formula (QTp), among others. In the studies described herein, QT was calculated using the Fridericia formula. However, the present invention includes the use of any such formula or method for calculating a QTc or an uncorrected QT. Using the genotypes at the SNP loci above, it is possible, with a high degree of certainty, to predict an individual's predisposition to QT prolongation.

[1] = QTc change threshold >5 msec not exceeded
[2] = QTc change threshold >15 msec not exceeded
[3] = QTc change threshold >30 msec not exceeded

COc1cc(C(C)=O)ccc1OCCCN1CCC(c2noc3cc(F)ccc23)CC1 [iloperidone]
Odds Ratio (QTc change >5 msec vs rs993648 non-AB genotype): 3.62
High QT, - test (number of individuals) (QTc change >5 msec): 38
High QT, + test (number of individuals) (QTc change >5 msec): 72
Odds Ratio (QTc change >15 msec vs rs993648 non-AB genotype): 4.45
High QT, - test (number of individuals) (QTc change >15 msec): 18
High QT, + test (number of individuals) (QTc change >15 msec): 53
Odds Ratio (QTc change >30 msec vs rs993648 non-AB genotype): 6.16
High QT, - test (number of individuals) (QTc change >30 msec): 4
High QT, + test (number of individuals) (QTc change >30 msec): 23
Low QT, - test (number of individuals) [1]: 42
Low QT, + test (number of individuals) [1]: 22
Low QT, - test (number of individuals) [2]: 62
Low QT, + test (number of individuals) [2]: 41
Low QT, - test (number of individuals) [3]: 76
Low QT, + test (number of individuals) [3]: 71
